Assay results from patent publication US20250264460A1, “METHOD OF MEASURING LEVEL OF IMMUNE SUPPRESSION” (THE JOHNS HOPKINS UNIVERSITY, priority 2022, published 2025).
Entries after “also recorded” stand apart in the source; their conditions may differ. Like-named read-outs stand apart in the source and are kept apart here.

What was measured:
class-switched B cells = test: Flow cytometry of CD11c and CPT1a on class-switched B cells of SOTRs by MMF dose; assay type: in vivo, human; conditions: SOTRs on high dose MMF or MPA (>1000 mg/per day or >721 mg/day)
Experimental: (§1) FIGS. 4A-4J show high dose MMF inhibits mitochondrial fatty acid oxidation. FIGS. 4A-4B show normalized mean fluorescent intensity (MFI) of CD11c and CPT1a on total class-switched B cells segregated by dose of MMF; high (>1000), low (<1000), or none. […] FIGS. 4D-4E show oxygen consumption rate (OCR) following mitochondrial stress test of PBMCs plated directly post thaw from SOTRs or HCs (FIG. 4D) or healthy PBMCs treated in vitro with high or low dose MPA 48 hours prior to plating (FIG. 4E).

SARS-COV-2 spike = assay type: in vivo, human; conditions: SOTRs on immunosuppression, two weeks post dose three
PBMCs [1] = test: Oil red O staining of lipid droplets in PBMCs from SOTRs, ex vivo; set-up: species or system human; conditions: PBMCs from SOTRs on high dose MMF
Experimental: as §1
Due to the association with MMF dose and CPT1a expression, PBMCs from SOTRs receiving high dose, low dose, or no MMF were evaluated ex vivo for alterations in lipid metabolism. Immunosuppression dose is largely determined by estimation of graft function and the measurement of the blood levels of immunosuppressive drugs, although neither method is sensitive or specific for determining the current immunosuppressive status, particularly for MMF, where drug levels are not routinely measured. […] Mitochondrial bioenergetics were next measured directly ex vivo via the Agilent Seahorse XF Cell Mito Stress Test at basal levels and in response to mitochondrial stress, in the absence of additional stimulation or exogenous substrates. The oxygen consumption rate (OCR) was used as a measurement of mitochondrial respiration/oxidative phosphorylation (OXPHOS). […]

PBMCs [2] = test: Seahorse XF Cell Mito Stress Test (OCR) of PBMCs from SOTRs, ex vivo; assay type: in vivo, human
Experimental: as §1
Due to the association with MMF dose and CPT1a expression, PBMCs from SOTRs receiving high dose, low dose, or no MMF were evaluated ex vivo for alterations in lipid metabolism. Immunosuppression dose is largely determined by estimation of graft function and the measurement of the blood levels of immunosuppressive drugs, although neither method is sensitive or specific for determining the current immunosuppressive status, particularly for MMF, where drug levels are not routinely measured. […] Mitochondrial bioenergetics were next measured directly ex vivo via the Agilent Seahorse XF Cell Mito Stress Test at basal levels and in response to mitochondrial stress, in the absence of additional stimulation or exogenous substrates. The oxygen consumption rate (OCR) was used as a measurement of mitochondrial respiration/oxidative phosphorylation (OXPHOS).

healthy PBMCs [3] = test: Seahorse OCR of healthy PBMCs treated in vitro with MPA; assay type: cell-based, human; conditions: for OCR: 48 hours prior to plating; for Effect on OCR increase of low dose MPA-treated cells: etomoxir (2 μM) 1 hour prior to measurement
Experimental: as §1
FIGS. 8A-81 show high dose MPA induces mitochondrial unresponsiveness. […] FIGS. 8D-8G show healthy PBMCs were treated with 5 μM MPA for 24 hours in complete media then rested overnight in low-nutrient media prior to analysis. Oxygen consumption rate (OCR) of exposed to long chain fatty acid palmitate (165 μM) (FIG. 8D), medium chain fatty acid octanoic acid (200 μM) (FIG. 8E), glucose (10 mM) and pyruvate (1 mM) (FIG. 8F), or glutamine (2 mM) (FIG. 8G) 20 minutes prior to analysis. FIGS. 8H-81 show fold change in baseline (FIG. 8H) or maximal (FIG. 81) OCR when healthy PBMCs were supplied with indicated substrates.
To test this hypothesis, cells were exposed to low dose etomoxir, an inhibitor of CPT1a transport of FAs into mitochondria. […] To confirm that high dose MPA inhibits FAO, palmitate (a long chain FA) was added exogenously to cultures 20 minutes prior to evaluation of mitochondrial respiration.

T cells and B cells = test: Cell Trace Violet proliferation of stimulated T cells and B cells in the presence of MPA; assay type: cell-based, human; conditions: 6 days
healthy PBMCs [4] = test: Oil red O staining of healthy PBMCs treated in vitro with MPA; assay type: cell-based, human; conditions: high dose MPA (5 μM)
Experimental: Genes associated lipid synthesis were increased in total B cells from SOTRs (R or NR) in SCR.NA seq (FIG. 14A). PCA plot of lipidomics performed on total B cells derived from SOTRs or HCs (FIG. 14B). […] Accumulation of lipid droplets were measured by Oil Red O in PBMCs from HC or SOTR (FIG. 14D).

B cells and T cells = test: OCR of B cells and T cells treated with MPA and etomoxir; assay type: cell-based, human
Source text: FIGS. 16A-16C show low dose MPA induces CPT1a-dependent FAO in B cells but not T cells.

PBMCs [5] = test: Viability of PBMCs after MPA treatment; assay type: cell-based, human; conditions: PBMCs 48 hours after 5 μM MPA, versus untreated
[6] = etomoxir (CPT1a inhibition), MPA-treated

COc1c(C)c2c(c(O)c1C/C=C(\C)CCC(=O)OCCN1CCOCC1)C(=O)OC2 [MMF, mycophenolate mofetil]
CD11c expression on class switched B cells (class-switched B cells): significantly lower | CPT1a expression on class switched B cells (class-switched B cells): significantly lower | Association of treatment with anti-S IgG response to third vaccine dose (SARS-COV-2 spike): specifically associated with a lack of response | Association of treatment with anti-S IgG response to third vaccine dose (SARS-COV-2 spike; listed as mycophenolate mofetil): all participants who failed to respond to a 3rd dose received | Intracellular lipid droplets (Oil Red O) (PBMCs [1]): higher levels of Oil Red O staining; also recorded: accumulation of intracellular lipid droplets | Oxygen consumption rate (OCR) (PBMCs [2]; PBMCs from SOTRs on high dose MMF): reduced oxygen consumption rate; also recorded: reduced OCR compared to other SOTRs | Basal respiration (OCR) (PBMCs [2]; PBMCs from SOTRs on low dose MMF, no exogenous substrates): significantly higher basal respiration compared to HCs

COc1c(C)c2c(c(O)c1C/C=C(\C)CCC(=O)O)C(=O)OC2 [MPA, mycophenolic acid]
Response to mitochondrial stress tests (healthy PBMCs [3]; high dose MPA): comparable manner to untreated cells | Mitochondrial oxidation of supplemented substrates (medium-chain fatty acids, glucose, glutamine) (healthy PBMCs [3]; high dose MPA (5 μM)): inhibits mitochondrial oxidation of various substrates; also recorded: diminished mitochondrial oxidation of various supplemented substrates | OCR (healthy PBMCs [3]; high dose MPA (5 μM)): reduced OCR compared to low dose | Oxidation of exogenous palmitate (OCR) (healthy PBMCs [3]; high dose MPA, palmitate (165 μM) 20 minutes prior): not able to oxidize exogenous long-chain fatty acid palmitate; also recorded: unable to oxidize palmitate | OCR (healthy PBMCs [3]; low dose MPA): directly induced increased OCR; also recorded: increased OCR compared to untreated PBMCs | CD11c expression on class switched B cells (class-switched B cells): significantly lower | CPT1a expression on class switched B cells (class-switched B cells): significantly lower | Lymphocyte proliferation (T cells and B cells; high dose MPA (5 μM)): completely inhibit proliferation | Lymphocyte proliferation (T cells and B cells; low dose MPA (0.05 μM)): limit proliferation | Accumulation of lipids (Oil Red O) (healthy PBMCs [4]): increased accumulation of lipids | Accumulation of lipids (Oil Red O) (healthy PBMCs [4]; listed as mycophenolic acid): Accumulation of lipid droplets was seen | OCR of B cells (B cells and T cells; high dose MPA): blunted the increased OCR in B cells | OCR of B cells versus T cells (B cells and T cells; low dose MPA): only B cells increased their OCR | Cell viability (PBMCs [5]): equivalent cell viability

CCOC(=O)[C@@]1(CCCCCCOc2ccc(Cl)cc2)CO1 [etomoxir]
Effect on OCR increase of low dose MPA-treated cells (healthy PBMCs [3]): completely reversed the increase in OCR | Effect on OCR increase of low dose MPA-treated cells (healthy PBMCs [3]; listed as Etomoxir): completely reversed the increase of OCR | OCR of B cells (B cells and T cells; [6]): reduced OCR to baseline levels in B cells | OCR of T cells (B cells and T cells; [6]): had no effect on T cells
